Key:
[1] = Cytotoxicity against human MT4 cells assessed as reduction in cell viability by MTT assay; type: toxicity, cell-based
[2] = test system: Human immunodeficiency virus 1; test: Antiviral activity against wild type HIV-1 IIIB infected in human MT4 cells assessed as protection against virus-induced cytopathic effect incubated for 5 days by MTT assay; type: functional, organism-based; conditions: Human immunodeficiency virus 1, IIIB, MT4, 120 h
[3] = Selectivity index, ratio of CC50 for cytotoxicity against human MT4 cells assessed as reduction in cell viability by MTT assay to EC50 for antiviral activity against wild type HIV-1 IIIB infected in human MT4 cells assessed as protection against virus-induced cytopathic effect; type: toxicity, cell-based; conditions: read-out: Ratio CC50/EC50
[4] = test system: Human immunodeficiency virus 1; test: Antiviral activity against NNRTI-resistant HIV-1 harboring E138K mutant infected in human MT4 cells assessed as protection against virus-induced cytopathic effect by MTT assay; type: functional, organism-based; conditions: Human immunodeficiency virus 1, MT4
[5] = molecular target: Human immunodeficiency virus type 1 reverse transcriptase (Human immunodeficiency virus 1, UniProt Q72547); test: Inhibition of wild type HIV-1 Reverse transcriptase assessed as reduction of biotin-dUTP incorporation into […] using ABTS as substrate preincubated with compound for 1 hr followed by substrate addition in presence of biotin-labeled dNTPs by ELISA analysis
[6] = test system: Human immunodeficiency virus 1; test: Antiviral activity against NNRTI-resistant HIV-1 harboring Y188L mutant infected in human MT4 cells assessed as protection against virus-induced cytopathic effect by MTT assay; type: functional, organism-based; conditions: Human immunodeficiency virus 1, MT4
[7] = test system: Human immunodeficiency virus 1; test: Antiviral activity against NNRTI-resistant HIV-1 harboring L100I mutant infected in human MT4 cells assessed as protection against virus-induced cytopathic effect by MTT assay; type: functional, organism-based; conditions: Human immunodeficiency virus 1, MT4
[8] = test system: Human immunodeficiency virus 1; test: Antiviral activity against NNRTI-resistant HIV-1 harboring K103N mutant infected in human MT4 cells assessed as protection against virus-induced cytopathic effect by MTT assay; type: functional, organism-based; conditions: Human immunodeficiency virus 1, MT4
[9] = test system: Human immunodeficiency virus 1; test: Antiviral activity against NNRTI-resistant HIV-1 harboring RES056 mutant infected in human MT4 cells assessed as protection against virus-induced cytopathic effect by MTT assay; type: functional, organism-based; conditions: Human immunodeficiency virus 1, MT4
[10] = test system: Human immunodeficiency virus 1; test: Antiviral activity against NNRTI-resistant HIV-1 harboring Y181C mutant infected in human MT4 cells assessed as protection against virus-induced cytopathic effect by MTT assay; type: functional, organism-based; conditions: Human immunodeficiency virus 1, MT4

Row | SMILES | CC50 [1] | EC50 [2] | selectivity ratio [3] | EC50 [4] | IC50 [5] | EC50 [6] | EC50 [7] | EC50 [8] | EC50 [9] | EC50 [10]
1 | Cn1c(Cn2ccc(C(F)(F)F)c(Oc3cc(Cl)cc(-c4ccsc4)c3)c2=O)n[nH]c1=O | 87.2 µM | 41 nM | 2130 | – | – | – | – | – | – | –
2 | Cn1c(Cn2ccc(C(F)(F)F)c(Oc3cc(Cl)cc(-c4cccnc4)c3)c2=O)n[nH]c1=O | 12.8 µM | 61 nM | 210 | – | – | – | – | – | – | –
3 | Cn1c(Cn2ccc(C(F)(F)F)c(Oc3cc(Cl)cc(-c4ccc(O)cc4)c3)c2=O)n[nH]c1=O | 16.2 µM | 361 nM | 45 | – | – | – | – | – | – | –
4 | Cn1c(Cn2ccc(C(F)(F)F)c(Oc3cc(Cl)cc(-c4ccoc4)c3)c2=O)n[nH]c1=O | 57.4 µM | 280 nM | 205 | – | – | – | – | – | – | –
5 | Cn1c(Cn2ccc(C(F)(F)F)c(Oc3cc(Cl)cc(C(N)=O)c3)c2=O)n[nH]c1=O | 28.5 µM | 2030 nM | 14 | – | – | – | – | – | – | –
6 | Cn1c(Cn2ccc(C(F)(F)F)c(Oc3cc(Cl)cc(-c4ccc(N)nc4)c3)c2=O)n[nH]c1=O | 32.1 µM | 209 nM | 154 | – | – | – | – | – | – | –
7 | Cn1c(Cn2ccc(C(F)(F)F)c(Oc3cc(Cl)cc(-c4cccs4)c3)c2=O)n[nH]c1=O | 45.8 µM | 959 nM | 48 | – | – | – | – | – | – | –
8 | Cn1c(Cn2ccc(C(F)(F)F)c(Oc3cc(Cl)cc(-c4cnc(N)nc4)c3)c2=O)n[nH]c1=O | 3.24 µM | 168 nM | 19 | – | – | – | – | – | – | –
9 | Cn1c(Cn2ccc(C(F)(F)F)c(Oc3cc(Cl)cc(-c4ccncc4)c3)c2=O)n[nH]c1=O | 70.5 µM | 15 nM | 4700 | 39 nM | 80 nM | 1320 nM | 12 nM | 22 nM | 962 nM | 40 nM
10 | Cc1ccc(-c2cc(Cl)cc(Oc3c(C(F)(F)F)ccn(Cc4n[nH]c(=O)n4C)c3=O)c2)cc1 | 94.2 µM | 8 nM | 11800 | 37 nM | 30 nM | 1350 nM | 13 nM | 17 nM | 344 nM | 29 nM
11 | Cn1c(Cn2ccc(C(F)(F)F)c(Oc3cc(Cl)cc(-c4cc5ccccc5s4)c3)c2=O)n[nH]c1=O | 101 µM | 12 nM | 8420 | 17 nM | 40 nM | 639 nM | 12 nM | 18 nM | 185 nM | 38 nM
12 | COC(=O)c1ccc(-c2cc(Cl)cc(Oc3c(C(F)(F)F)ccn(Cc4n[nH]c(=O)n4C)c3=O)c2)cc1 | 47.9 µM | 11 nM | 4360 | 16 nM | 30 nM | 760 nM | 11 nM | 19 nM | 177 nM | 17 nM
13 | Cn1c(Cn2ccc(C(F)(F)F)c(Oc3cc(Cl)cc(C(=O)O)c3)c2=O)n[nH]c1=O | 34.2 µM | 5310 nM | 6 | – | – | – | – | – | – | –
14 | Cn1c(Cn2ccc(C(F)(F)F)c(Oc3cc(Cl)cc(-c4cnc5ccccc5c4)c3)c2=O)n[nH]c1=O | 58.1 µM | 436 nM | 133 | – | – | – | – | – | – | –
15 | Cn1c(Cn2ccc(C(F)(F)F)c(Oc3cc(Cl)cc(-c4ccc([N+](=O)[O-])cc4)c3)c2=O)n[nH]c1=O | 45.4 µM | 31 nM | 1460 | – | – | – | – | – | – | –
16 | Cn1c(Cn2ccc(C(F)(F)F)c(Oc3cc(Cl)cc(-c4ccccc4)c3)c2=O)n[nH]c1=O | 187 µM | 370 nM | 505 | – | – | – | – | – | – | –
17 | Cn1c(Cn2ccc(C(F)(F)F)c(Oc3cc(Cl)cc(-c4ccc(F)cc4)c3)c2=O)n[nH]c1=O | 31.3 µM | 195 nM | 161 | – | – | – | – | – | – | –
18 | Cn1c(Cn2ccc(C(F)(F)F)c(Oc3cc(Cl)cc(C#N)c3)c2=O)n[nH]c1=O [DORAVIRINE] | > 294 µM | 8 nM | – | 37 nM | – | 2080 nM | 13 nM | 14 nM | 128 nM | 27 nM
19 | Cn1c(Cn2ccc(C(F)(F)F)c(Oc3cc(Cl)cc(-c4ccc(Cl)cc4)c3)c2=O)n[nH]c1=O | 124 µM | 11 nM | – | 28 nM | 20 nM | 1490 nM | 14 nM | 19 nM | 401 nM | 30 nM
20 | Cn1c(Cn2ccc(C(F)(F)F)c(Oc3cc(Cl)cc(Br)c3)c2=O)n[nH]c1=O | 142 µM | 10 nM | 14200 | 28 nM | 30 nM | 1340 nM | 12 nM | 22 nM | 225 nM | 23 nM
21 | Cn1c(Cn2ccc(C(F)(F)F)c(Oc3cc(Cl)cc(-c4cncnc4)c3)c2=O)n[nH]c1=O | 64.7 µM | 10 nM | 6470 | 25 nM | 40 nM | 1480 nM | 19 nM | 42 nM | 91 nM | 43 nM
22 | Cn1c(Cn2ccc(C(F)(F)F)c(Oc3cc(Cl)cc(-c4ccco4)c3)c2=O)n[nH]c1=O | 59.1 µM | 190 nM | 311 | – | – | – | – | – | – | –
23 | Cn1c(Cn2ccc(C(F)(F)F)c(Oc3cc(Cl)cc(-c4ccc(N)cc4)c3)c2=O)n[nH]c1=O | 33.7 µM | 158 nM | 213 | – | – | – | – | – | – | –
24 | Cn1c(Cn2ccc(C(F)(F)F)c(Oc3cc(Cl)cc(-c4ccc(C#N)cc4)c3)c2=O)n[nH]c1=O | 5.13 µM | 47 nM | 109 | – | – | – | – | – | – | –
25 | Cn1c(Cn2ccc(C(F)(F)F)c(Oc3cc(Cl)cc(-c4ccc(C(N)=O)cc4)c3)c2=O)n[nH]c1=O | 74.2 µM | 261 nM | 284 | – | – | – | – | – | – | –

Source: ChEMBL document CHEMBL5543149, “Discovery of Novel Aryl Triazolone Dihydropyridines (ATDPs) Targeting Highly Conserved Residue W229 as Promising HIV-1 NNRTIs” (J Med Chem, 2024)
